Two molecules from patent US20240058464A1 (Fortis Therapeutics, Inc., priority 2021, published 2024) can be followed below.

Experiment [1] concerns CD46 expression.
Description: (§1) Gene expression was determined by RNA-sequencing from formalin-fixed, paraffin-embedded (FFPE) tumor samples using an exome capture-based protocol. Briefly, total nucleic acid was extracted from FFPE solid tumor samples. The RNA sample was treated with DNAse and reverse transcribed. cDNA was captured with a custom probe set targeting the human exome. A library was prepared from the captured cDNA and sequenced on the Illumina platform. Sequence read were aligned to GRCh37 using Kallisto and normalized to quantify gene expression. Specifically, transcript counts were corrected for GC content and length using quantile normalization and adjusted for sequencing depth via a size factor method. Normalized counts in protein coding transcripts covered by the exome panel were then summed to obtain gene-level counts. Subsequent expression analyses were performed on log2-transformed counts.
In experiment [2] the test system is CD46 expression. The experiment in a line: CD46 expression by RNA-sequencing in unpaired pre-treatment and post-treatment tumor biopsies. The settings on record: for CD46 expression diff: Post minus Pre, unpaired biopsies, log2-transformed counts; for CD46 expression Percentage change: post- vs pre-treatment unpaired biopsies; for CD46 expression Post: post-treatment biopsies, unpaired, RNA-seq log2-transformed normalized counts. The experiment is classed as in vivo, human.

In experiment [3] the test system is CD46 expression. Description: CD46 expression by RNA-sequencing in paired tumor biopsies before and after therapy.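 Also: FFPE human tumor biopsies, exome-capture RNA-seq, reads aligned to GRCh37, counts normalized for GC content, length and depth, summed per gene, log2-transformed, samples paired before versus after therapy.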 Conditions: Breast Cancer, paired biopsies.
Description: as §1

Read-outs that look alike come from different tables or passages of the source.

As to `C=C1C[C@@H]2[C@H](CC[C@]3(C)C(=O)CC[C@@H]23)[C@@]2(C)C=CC(=O)C=C12` [exemestane], in the experiment on CD46 expression [1], the “CD46 expression, Post-Treatment Biopsy” value worked out at 6.37 and the “CD46 expression, Pre-Treatment Biopsy” value is on record as 6.41. Further, in the experiment on CD46 expression [1] (Breast Cancer, paired biopsies), the “CD46 expression diff (post minus pre)” value is recorded as −0.04 and the “Percent Change in CD46 expression” value was 0.5%. Also, in the experiment with CD46 expression [2] (Breast Cancer), the CD46 expression diff was found to be 0.11, the “CD46 expression Percentage change” value was determined as 1.8% and the “CD46 expression Post” value was determined as 6.50.

For the molecule `O=P1(N(CCCl)CCCl)NCCCO1` (stereo not shown) [cyclophosphamide], in the experiment with CD46 expression [2] (Breast Cancer), the CD46 expression diff is on record as −0.03, the “CD46 expression Percentage change” value is −0.4% and the “CD46 expression Post” value stood at 6.08. For the same molecule, in the experiment on CD46 expression [2] (Ovarian Cancer), the CD46 expression diff is given as 0.11, the “CD46 expression Percentage change” value worked out at 1.9% and the “CD46 expression Post” value is 5.76. In the experiment with CD46 expression [2] (Sarcoma), the CD46 expression diff is on record as 0.06, the “CD46 expression Percentage change” value came to 1.2% and the “CD46 expression Post” value is 5.12. In addition, in the experiment with CD46 expression [3], the “CD46 expression diff (post minus pre)” value is 0.01 and the “Percent Change in CD46 expression” value turned out to be 0.2%. The “CD46 expression, Post-Treatment Biopsy” value in the experiment with CD46 expression [3] (RNA-seq log2-transformed counts) was found to be 6.22.
